Results: patent publication US10864196B2, “Modulators of the integrated stress pathway” (Calico Life Sciences LLC, priority 2016, dated 2020)

System: HEK293T cells carrying the ATF4 luciferase reporter
Experiment: ATF4-Luc assay (in vitro model of VWMD)
Type: cell-based
Details: Homo sapiens, HEK-293T, 1 μg/mL tunicamycin, 7 hours, One Glo luminescence
Protocol: In order to test exemplary compounds of the invention in a cellular context, a stable VWMD cell line was first constructed. The ATF4 reporter was prepared by fusing the human full-length ATF4 5′-UTR (NCBI Accession No. BC022088.2) in front of the firefly luciferase (FLuc) coding sequence lacking the initiator methionine as described in Sidrauski et al (eLife 2013). The construct was used to produce recombinant retroviruses using standard methods and the resulting viral supernatant was used to transduce HEK293T cells, which were then subsequently selected with puromycin to generate a stable cell line.
HEK293T cells carrying the ATF4 luciferase reporter were plated on polylysine coated 384-well plates (Greiner Bio-one) at 30,000 cells per well. Cells were treated the next day with 1 μg/mL tunicamycin and 200 nM of a compound of Formula (I) for 7 hours. Luminescence was measured using One Glo (Promega) as specified by the manufacturer. Cells were maintained in DMEM with L-glutamine supplemented with 10% heat-inactivated FBS (Gibco) and Antibiotic-Antimycotic solution (Gibco).
Table 2 below summarizes the EC50 data obtained using the ATF4-Luc assay for exemplary compounds of the invention.

First: O=C(COc1ccc(Cl)c(F)c1)NC12CC(c3nnc(COc4cnc5cc[nH]c5c4)o3)(C1)C2 [Compound 149, 2-(4-chloro-3-fluorophenoxy)-N-[3-(5-{[(1H-pyrrolo[3,2-b]pyridin-6-yl)oxy]methyl}-1,3,4-oxadiazol-2-yl)bicyclo[1.1.1]pentan-1-yl]acetamide]
Second: O=C(COc1ccc(Cl)c(F)c1)NC12CC(c3nnc(COc4cncc(Cl)c4)o3)(C1)C2 [Compound 148, 2-(4-chloro-3-fluorophenoxy)-N-[3-(5-{[(5-chloropyridin-3-yl)oxy]methyl}-1,3,4-oxadiazol-2-yl)bicyclo[1.1.1]pentan-1-yl]acetamide]
The EC50 of the first is higher: 1000 to 2000 nM for the first, 50 to 250 nM for the second.

First: O=C(COc1ccc(Cl)c(F)c1)NC12CC(c3nnc(Oc4ccc(C(F)(F)F)cc4)o3)(C1)C2 [Compound 131, 2-(4-chloro-3-fluorophenoxy)-N-(3-{5-[4-(trifluoromethyl)phenoxy]-1,3,4-oxadiazol-2-yl}bicyclo[1.1.1]pentan-1-yl)acetamide]
Second: Cc1ccc(Oc2nnc(C34CC(NC(=O)COc5ccc(Cl)c(F)c5)(C3)C4)o2)cc1 [Compound 123, 2-(4-chloro-3-fluorophenoxy)-N-{3-[5-(4-methylphenoxy)-1,3,4-oxadiazol-2-yl]bicyclo[1.1.1]pentan-1-yl}acetamide]
The EC50 of the first is lower: < 50 nM for the first, 50 to 250 nM for the second.

First: O=C(COc1ccc(Cl)c(F)c1)NC12CC(c3nc(COc4ccc(C(F)(F)F)nc4)no3)(C1)C2 [Compound 161, 2-(4-chloro-3-fluorophenoxy)-N-{3-[3-({[6-(trifluoromethyl)pyridin-3-yl]oxy}methyl)-1,2,4-oxadiazol-5-yl]bicyclo[1.1.1]pentan-1-yl}acetamide]
Second: O=C(COc1ccc(Cl)c(F)c1)NC12CCC(c3nc(COc4ccc(C(F)(F)F)nc4)no3)(CC1)C(O)C2 (stereo not drawn) [Compound 166, 2-(4-chloro-3-fluorophenoxy)-N-{3-hydroxy-4-[3-({[6-(trifluoromethyl)pyridin-3-yl]oxy}methyl)-1,2,4-oxadiazol-5-yl]bicyclo[2.2.2]octan-1-yl}acetamide]
The EC50 of the first is lower: 50 to 250 nM for the first, 250 to 1000 nM for the second.

First: COc1ccccc1Oc1nnc(C23CC(NC(=O)COc4ccc(Cl)c(F)c4)(C2)C3)o1 [Compound 124, 2-(4-chloro-3-fluorophenoxy)-N-{3-[5-(2-methoxyphenoxy)-1,3,4-oxadiazol-2-yl]bicyclo[1.1.1]pentan-1-yl}acetamide]
Second: Cc1ccccc1Oc1nnc(C23CC(NC(=O)COc4ccc(Cl)c(F)c4)(C2)C3)o1 [Compound 134, 2-(4-chloro-3-fluorophenoxy)-N-{3-[5-(2-methylphenoxy)-1,3,4-oxadiazol-2-yl]bicyclo[1.1.1]pentan-1-yl}acetamide]
The EC50 of the first is higher: > 2000 nM for the first, 250 to 1000 nM for the second. The second is the more potent here.

COCc1nnc([C@]23CC[C@](NC(=O)COc4ccc(Cl)c(F)c4)(CC2)CC3=O)o1 [Compound 164, 2-(4-chloro-3-fluorophenoxy)-N-{4-[5-(methoxymethyl)-1,3,4-oxadiazol-2-yl]-3-oxobicyclo[2.2.2]octan-1-yl}acetamide] and COCc1nnc(C23CCC(NC(=O)COc4ccc(Cl)c(F)c4)(CC2)CC3O)o1 (stereo not drawn) [Compound 165, 2-(4-chloro-3-fluorophenoxy)-N-{3-hydroxy-4-[5-(methoxymethyl)-1,3,4-oxadiazol-2-yl]bicyclo[2.2.2]octan-1-yl}acetamide] fall in the same range of EC50: 250 to 1000 nM for the first, 250 to 1000 nM for the second.

Compared with Cc1cc(COCC(=O)NC23CC(c4nc(COc5ccc(Cl)cc5)no4)(C2)C3)no1 [Compound 112, N-(3-{3-[(4-chlorophenoxy)methyl]-1,2,4-oxadiazol-5-yl}bicyclo[1.1.1]pentan-1-yl)-2-[(5-methyl-1,2-oxazol-3-yl)methoxy]acetamide], O=C(COc1cccc(F)c1)NC12CC(c3nc(COc4ccc(Cl)cc4)no3)(C1)C2 [Compound 107, N-(3-{3-[(4-chlorophenoxy)methyl]-1,2,4-oxadiazol-5-yl}bicyclo[1.1.1]pentan-1-yl)-2-(3-fluorophenoxy)acetamide] is lower in EC50: > 2000 nM for the first, 250 to 1000 nM for the second. The second is the more potent here.

N#Cc1ccc(OCc2nnc(C34CC(NC(=O)COc5ccc(Cl)c(F)c5)(C3)C4)o2)cn1 [Compound 157, 2-(4-chloro-3-fluorophenoxy)-N-[3-(5-{[(6-cyanopyridin-3-yl)oxy]methyl}-1,3,4-oxadiazol-2-yl)bicyclo[1.1.1]pentan-1-yl]acetamide] and Cc1ccc(OCc2nnc(C34CC(NC(=O)COc5ccc(Cl)c(F)c5)(C3)C4)o2)cn1 [Compound 146, 2-(4-chloro-3-fluorophenoxy)-N-[3-(5-{[(6-methylpyridin-3-yl)oxy]methyl}-1,3,4-oxadiazol-2-yl)bicyclo[1.1.1]pentan-1-yl]acetamide] fall in the same range of EC50: 250 to 1000 nM for the first, 250 to 1000 nM for the second.

O=C(COc1ccc(Cl)cc1F)NC12CC(c3nc(COc4ccc(Cl)cc4)no3)(C1)C2 [Compound 111, 2-(4-chloro-2-fluorophenoxy)-N-(3-{3-[(4-chlorophenoxy)methyl]-1,2,4-oxadiazol-5-yl}bicyclo[1.1.1]pentan-1-yl)acetamide] and O=C(COc1ccc(Cl)c(F)c1)NC12CC(c3nc(COc4ccc(Cl)cc4)no3)(C1)C2 [Compound 110, 2-(4-chloro-3-fluorophenoxy)-N-(3-{3-[(4-chlorophenoxy)methyl]-1,2,4-oxadiazol-5-yl}bicyclo[1.1.1]pentan-1-yl)acetamide] fall in the same range of EC50: 50 to 250 nM for the first, 50 to 250 nM for the second.

Cc1ccc(Oc2nnc(C34CC(NC(=O)COc5ccc(Cl)c(F)c5)(C3)C4)o2)cc1C [Compound 130, 2-(4-chloro-3-fluorophenoxy)-N-{3-[5-(3,4-dimethylphenoxy)-1,3,4-oxadiazol-2-yl]bicyclo[1.1.1]pentan-1-yl}acetamide] and O=C(COc1ccc(Cl)c(F)c1)NC12CC(c3nnc(Oc4cccc(F)c4)o3)(C1)C2 [Compound 138, 2-(4-chloro-3-fluorophenoxy)-N-{3-[5-(3-fluorophenoxy)-1,3,4-oxadiazol-2-yl]bicyclo[1.1.1]pentan-1-yl}acetamide] fall in the same range of EC50: 50 to 250 nM for the first, 50 to 250 nM for the second.

Compared with COc1ccc(Oc2nnc(C34CC(NC(=O)COc5ccc(Cl)c(F)c5)(C3)C4)o2)cc1 [Compound 125, 2-(4-chloro-3-fluorophenoxy)-N-{3-[5-(4-methoxyphenoxy)-1,3,4-oxadiazol-2-yl]bicyclo[1.1.1]pentan-1-yl}acetamide], O=C(COc1ccc(Cl)c(F)c1)NC12CC(c3nnc(Oc4cncc(C(F)(F)F)c4)o3)(C1)C2 [Compound 117, 2-(4-chloro-3-fluorophenoxy)-N-[3-(5-{[5-(trifluoromethyl)pyridin-3-yl]oxy}-1,3,4-oxadiazol-2-yl)bicyclo[1.1.1]pentan-1-yl]acetamide] is lower in EC50: 250 to 1000 nM for the first, 50 to 250 nM for the second. The second is the more potent here.

Compared with COc1ncc(OCc2nnc(C34CC(NC(=O)COc5ccc(Cl)c(F)c5)(C3)C4)o2)cc1C [Compound 155, 2-(4-chloro-3-fluorophenoxy)-N-[3-(5-{[(6-methoxy-5-methylpyridin-3-yl)oxy]methyl}-1,3,4-oxadiazol-2-yl)bicyclo[1.1.1]pentan-1-yl]acetamide], O=C(COc1ccc(Cl)c(F)c1)NC12CC(c3nnc(COc4cncc(F)c4)o3)(C1)C2 [Compound 140, 2-(4-chloro-3-fluorophenoxy)-N-[3-(5-{[(5-fluoropyridin-3-yl)oxy]methyl}-1,3,4-oxadiazol-2-yl)bicyclo[1.1.1]pentan-1-yl]acetamide] is lower in EC50: 250 to 1000 nM for the first, 50 to 250 nM for the second. The second is the more potent here.

O=C(COc1ccc(Cl)c(F)c1)NC12CC(c3nnc(COc4ccc(Cl)cc4)[nH]3)(C1)C2 [Compound 132, 2-(4-chloro-3-fluorophenoxy)-N-(3-{5-[(4-chlorophenoxy)methyl]-4H-1,2,4-triazol-3-yl}bicyclo[1.1.1]pentan-1-yl)acetamide] and O=C(COc1ccc(Cl)cc1)NC12CC(c3nc(COc4ccc(Cl)cc4)no3)(C1)C2 [Compound 101, 2-(4-chlorophenoxy)-N-(3-{3-[(4-chlorophenoxy)methyl]-1,2,4-oxadiazol-5-yl}bicyclo[1.1.1]pentan-1-yl)acetamide] cannot be ordered by EC50: < 50 nM for the first, < 50 nM for the second.

First: O=C(COc1ccc(Cl)c(F)c1)NC12CCC(c3nnc(Oc4ccc(Cl)c(F)c4)o3)(CC1)C(O)C2 (stereo not drawn) [Compound 170, 2-(4-chloro-3-fluorophenoxy)-N-{4-[5-(4-chloro-3-fluorophenoxy)-1,3,4-oxadiazol-2-yl]-3-hydroxybicyclo[2.2.2]octan-1-yl}acetamide]
Second: CC(C)Oc1ccc(OCc2nnc(C34CC(NC(=O)COc5ccc(Cl)c(F)c5)(C3)C4)o2)cn1 [Compound 147, 2-(4-chloro-3-fluorophenoxy)-N-(3-{5-[({6-[(propan-2-yl)oxy]pyridin-3-yl}oxy)methyl]-1,3,4-oxadiazol-2-yl}bicyclo[1.1.1]pentan-1-yl)acetamide]
The EC50 of the first is lower: < 50 nM for the first, 1000 to 2000 nM for the second. The first is the more potent here.

CCc1nc(C)ccc1OCc1nnc(C23CC(NC(=O)COc4ccc(Cl)c(F)c4)(C2)C3)o1 [Compound 153, 2-(4-chloro-3-fluorophenoxy)-N-[3-(5-{[(2-ethyl-6-methylpyridin-3-yl)oxy]methyl}-1,3,4-oxadiazol-2-yl)bicyclo[1.1.1]pentan-1-yl]acetamide] was tested, and the EC50 was > 2000 nM.
